Data: US11365410B2, “Production and monitoring of metabolites in cells” (President and Fellows of Harvard College, priority 2015, dated 2022)

What was measured:
E. coli DH5α cells = assay: Toxicity of inducer chemicals (growth)
Description: Growth rate was measured for each combination of chemical and concentration during the exponential phase of growth. Rates were normalized to the growth rate of cells without any added chemical and plotted as bar height. Concentration of each inducer is indicated in the table, corresponding to the bar chart by order and color. […] Inducer concentrations mirror the concentrations used in the induction experiments.
150 μl of cells were transferred into 96-well plates and the assayed chemical was immediately added in triplicate before further incubation at 600 RPM and 37° C.
Toxicity of the inducer chemicals was measured to help guide the choice of inducer concentration for biosensor applications. In applications where maximum protein production is the goal, toxicity will be less of a consideration. In contrast, sub-toxic induction is important for complex circuits that require the cell to maintain a healthy cell state.

acuR = assay: acuR-based 3HP biosensor induction (indirect, via acrylate); assay type: cell-based, Rhodobacter sphaeroides; conditions: acrylate; no helper plasmid
Description: Metab Eng, 16, 130-139 hereby incorporated by reference in its entirety). All three reactions are useful for a prpR-based biosensor, but for the acuR-based biosensor, accumulation of acrylyl-CoA rather than propionyl-CoA is necessary. […] Accordingly, the domain responsible for conversion of acrylyl-CoA to propionyl-CoA was removed while preserving the activity of the other two domains. […] A 90-fold increase in fluorescence was obtained when the acuR-based biosensor was induced with 10 mM 3HP. […] Fluorescence remained at background levels for greater than 16 hours in the absence of pcs^Δ3 and ach (see FIG. 17).
Plasmids were constructed using Gibson isothermal assembly methods (see Gibson, D. G., Young, L., Chuang, R. Y., Venter, J. C., Hutchison, C. A., 3rd and Smith, H. O. (2009) Enzymatic assembly of DNA molecules up to several hundred kilobases. Nat Methods, 6, 343-345 hereby incorporated by reference in its entirety) and cloned into DH5α electrocompetent cells purchased from New England Biolabs. Biosynthesis of product molecules was carried out in either BL21 (DE3) or DH5α. The prpR-based 3HP biosensor was implemented as a two-plasmid system. The first plasmid is pPro24-GFP (Addgene plasmid #18880), which expresses GFPuv under the control of the methyl-citrate responsive transcription factor, prpR, on a pBR322 origin of replication providing β-lactam resistance. […]

[1] = molecular target: T1, AcuR (Rhodobacter sphaeroides), regulator sequence SEQ ID NO: 9 (Cereibacter sphaeroides, UniProt Q3J6K8); assay: AcuR biosensor induction (sfGFP reporter, Hill fit); assay type: cell-based; conditions: acrylate
T1 construct: expressed in transfected cells; host or cells: E. coli DH5alpha transformed with pJKR-H (high copy) or pJKR-L (low copy) plasmid
T1 sequence (Q3J6K8 1-219): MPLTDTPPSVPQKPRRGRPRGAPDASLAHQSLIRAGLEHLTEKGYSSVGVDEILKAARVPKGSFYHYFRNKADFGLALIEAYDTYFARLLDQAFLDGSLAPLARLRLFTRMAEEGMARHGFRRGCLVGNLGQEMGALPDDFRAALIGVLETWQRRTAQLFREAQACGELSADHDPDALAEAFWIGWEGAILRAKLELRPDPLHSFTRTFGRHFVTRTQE
Source text: Plasmids were constructed using Gibson isothermal assembly methods (see Gibson, D. G., Young, L., Chuang, R. Y., Venter, J. C., Hutchison, C. A., 3rd and Smith, H. O. (2009) Enzymatic assembly of DNA molecules up to several hundred kilobases. Nat Methods, 6, 343-345 incorporated herein by reference in its entirety) and transformed into DH5α electrocompetent cells (New England Biolabs, Ipswich Mass.). […] Each inducible system was implemented on high and low copy plasmids. High copy pJKR-H plasmids were constructed with the pUC origin and beta lactamase antibiotic resistance marker derived from pUC19 (New England Biolabs, Ipswich Mass.). Low copy pJKR-L plasmids were constructed in the same way, except that the pUC origin was replaced by the SC101 origin (including repA) from pSC101 obtained from American Type Culture Collection (ATCC #37032). […] In both these plasmids the antibiotic resistance gene and origin of replication were replaced with p15a-aadA and colA-kanR. Each enzyme was cloned downstream of the constitutive promoter P2 (see Mutalik, V. K., Guimaraes, J. C., Cambray, G., Lam, C., Christoffersen, M. J., Mai, Q. A., Tran, A. B., Paull, M., Keasling, J. D., Arkin, A. P. et al. (2013) Precise and reliable gene expression via standard transcription and translation initiation elements. Nat Methods, 10, 354-360 hereby incorporated by reference in its entirety) and g10 RBS to create pJKR-MIOX variants. These expression plasmids used the colA origin of replication and kanamycin resistance gene for maintenance. Sequences and plasmids are available on Addgene (plasmid numbers 62557-62570).
DH5α cells transformed with pJKR plasmids and maintained with carbenicillin were used in the induction assays. For each induction evaluation experiment, the cells were grown overnight to saturation before being diluted 1:100 into fresh LB media and incubated at 200 RPM and 37° C. […] Measurements were made on the same Biotek (Winooksi, Vt.) HT plate reader using the same settings: excitation 485/20, emission 528/20, 37° C. and fast shaking. Fluorescence and absorbance were measured every 10 minutes for 15 hours. Fluorescence was measured in arbitrary units (AFU) while optical density was determined by absorbance (OD). Normalized fluorescence was determined by dividing fluorescence by optical density for a given measurement. […]
The ratio of fluorescence to absorbance at 600 nm was used in order to compensate for changes in cell density over time and between experiments (AFU/OD). […] This transfer function is plotted on a log-log scale in FIG. 1A and FIG. 1B to capture the wide range of inducer concentrations and resulting fluorescence values. […]

[2] = molecular target: T2, TtgR (Pseudomonas putida), regulator sequence SEQ ID NO: 14 (Pseudomonas putida, UniProt Q9AIU0); conditions: no test described; cited from earlier work
T2 construct: expressed in transfected cells; host or cells: E. coli DH5alpha transformed with pJKR-H (high copy) or pJKR-L (low copy) plasmid

[3] = molecular target: T2, TtgR (Pseudomonas putida), regulator sequence SEQ ID NO: 14; assay type: cell-based
Description: (§1) DH5α cells transformed with pJKR plasmids and maintained with carbenicillin were used in the induction assays. For each induction evaluation experiment, the cells were grown overnight to saturation before being diluted 1:100 into fresh LB media and incubated at 200 RPM and 37° C. After four hours, 150 μl of the log-phase cells were transferred to 96-well plates and stock inducer was added to achieve the desired range of induction concentrations. Three separate wells were inoculated and independently supplemented with the appropriate amount of inducing chemical for each level of induction. Measurements were made on the same Biotek (Winooksi, Vt.) HT plate reader using the same settings: excitation 485/20, emission 528/20, 37° C. and fast shaking. Fluorescence and absorbance were measured every 10 minutes for 15 hours. Fluorescence was measured in arbitrary units (AFU) while optical density was determined by absorbance (OD). Normalized fluorescence was determined by dividing fluorescence by optical density for a given measurement. Five independent wells containing control strains, transformed with pUC19, were included to provide a measurement of background autofluorescence.

[4] = test system: muconate biosensor benM in BL21 cells; assay: Real-time muconate monitoring from pathway intermediates with benM biosensor; assay type: cell-based, E. coli; conditions: strain with muconate biosynthesis pathway
Source text: A cell was genetically modified to include the muconate biosensor benM regulating production of a fluorescent molecule, and a LysR-type transcriptional regulator derived from Acinetobacter baylyi (see Craven, S. H., Ezezika, O. C., Haddad, S., Hall, R. A., Momany, C. and Neidle, E. L. (2009) Inducer responses of BenM, a LysR-type transcriptional regulator from Acinetobacter baylyi ADP1. Mol Microbiol, 72, 881-894 hereby incorporated by reference in its entirety). This setup is analogous to the previously described muconate artificial selection in which benM controls expression of an antibiotic resistance gene (see Raman, S., Rogers, J. K., Taylor, N. D. and Church, G. M. (2014) Evolution-guided optimization of biosynthetic pathways. Proceedings of the National Academy of Sciences of the United States of America, 111, 17803-17808 hereby incorporated by reference in its entirety. In order to achieve various muconate production rates for real-time observation, muconate was produced from a range of precursor molecules by implementing the biosynthetic pathway developed by Draths and Frost (see Niu, W., Draths, K. M. and Frost, J. W. (2002) Benzene-free synthesis of adipic acid. Biotechnology progress, 18, 201-211 and Draths, K. M. and Frost, J. W. (1994) Environmentally Compatible Synthesis of Adipic Acid from D-Glucose. […]
Muconate production monitoring was carried out in BL21 cells doubly transformed with pJKR-H-benM and the muconate production plasmid. […] After four hours, 150 μl of the log-phase cells were transferred to 96-well plates and monitored in the plate reader. After one hour, the specified concentration of pathway intermediate was added in triplicate and fluorescence monitoring was resumed. […] The quantity of muconate in the supernatant was determined by HPLC. […]

TtgR biosensor = TtgR biosensor induction with phenol and related compounds; assay type: cell-based, E. coli; conditions: 0.1% phenol, 0.1% catechol, up to 0.4% benzene; fluorescence after 90 minutes
Description: All experiments were carried out in triplicate.
as §1

[5] = test system: inducible promoter driving sfGFP in DH5α cells; assay: Hill-function fit of maximum GFP expression rate to inducer concentration; assay type: cell-based, E. coli
Description: The GFP expression rate was calculated at each time-point with the formula ΔGFP/OD. Scipy was used to perform a non-linear least-squares fit of the maximum GFP expression rate to the corresponding inducer concentration using the Hill function
Vmax is the maximum rate of GFP expression, Vmin is basal rate of GFP expression, I is the concentration of inducer, h is the hill coefficient and KL is the lumped half-maximal parameter described in Results. The variance of each parameter was determined from the least-squares covariance matrix.
A model of gene activation is applied as described herein to relate promoter activity to inducer concentration. Promoter activity is defined as the time derivative of fluorescence corrected for cell growth. […] Gene expression rates were fit to a Hill function adapted to account for both the maximum velocity of gene expression and the basal expression of the uninduced cells.

With `C=CC(=O)O` [Acrylate, acrylate] as the molecule, how does the “Toxicity in induction experiment” value (E. coli DH5α cells; 10 mM acrylate) read?
Its value is “high toxicity”.

And the Toxicity (E. coli DH5α cells; acrylate 5 mM and 10 mM)?
The Toxicity was “substantial toxicity”.

And the “Response of acrylate biosensor without helper plasmid” value (acuR)?
The value was “respond to acrylate”.

What about the “Hill Coefficient” value ([1]; high copy) of the same molecule?
The value was 3.2 ± 0.3.

And the “Max Expression Velocity” value ([1]; high copy)?
The value was 910 ± 40 s⁻¹.

What about the “Hill Coefficient” value ([1]; low copy) of the same molecule?
The value was 1.3 ± 0.1.

What about the “Max Expression Velocity” value ([1]; low copy) of the same molecule?
Its value is 150 ± 10 s⁻¹.

For `O=C(N[C@H](CO)[C@H](O)c1ccc([N+](=O)[O-])cc1)C(Cl)Cl` [Chloramphenicol, chloramphenicol], which “Activation of TtgR by chloramphenicol” value [2] is on record?
Its value is “activation”.

For `CC(C)c1ccc(C(=O)O)cc1` [Cumate, cumate], which “Activation of TtgR by cumate” value ([3]; cross-reactivity panel, 20 μM) is on record?
The value was “not activated”.

For `O=C(O)C1=CC(=O)[C@@H](O)[C@H](O)C1` [DHS, 3-dehydroshikimate], which “fluorescence response of muconate biosensor” value (“fluorescence response” for short) [4] is on record?
Its value is “rapid fluorescence response”.

For `Oc1ccccc1` [Phenol, phenol], which “Activation of TtgR sensor” value ([3]; 0.1%, 90 min) is on record?
The value was “only phenol activated the sensor”.

For `Oc1ccccc1O` [catechol], which “fluorescent response of TtgR biosensor” value (TtgR biosensor) is on record?
Its value is “did not activate the sensor”.

And the “fluorescence response” value [4]?
Its value is “rapid fluorescence response”.

For `O=C(O)c1ccc(O)c(O)c1` [protocatechuate], which “fluorescence response” value [4] is on record?
The value was “rapid fluorescence response”.

What does the source list for AraC?
Basal Expression Velocity ([5]; High copy number plasmid): 20 ± 50 s⁻¹; Basal Expression Velocity ([5]; Low copy number plasmid): 40 ± 30 s⁻¹
